The source of these data is patent US20260232682A1, “GSPT1 DEGRADER COMPOUNDS” (Captor Therapeutics S.A., priority 2023, published 2026).

In assay [1] the target is [GSPT1]-[compound of formula (I)]-[CRBN/DDB1] complex (Homo sapiens, UniProt P15170+Q96SW2). Put plainly: AlphaLISA ternary complex formation assay (GSPT1). In kind it is binding. As to conditions: 0.5 h; 1 μM compound; normalized to reference compound CC-885; read-out: Normalized AlphaLISA ternary complex average signal at 1 μM molecule. Here is the method:
The effect of the molecular glue compounds of the invention on the formation of a ternary complex composed of [GSPT1]-[compound of formula (I)]-[CRBN/DDB1] was investigated with two methods: AlphaLISA dose response assay or HTRF ternary complex assay.
Two types of protein solution were prepared: • 200 nM biotinylated GSPT1 (Table 3), 40 μg/ml AlphaScreen Streptavidin-coated Donor Beads in HBS (10 mM HEPES, 150 mM NaCL, pH 7.4) buffer with 0.1% Tween-20 and 1 mM DTT, • 200 nM 6×His-CRBN/DDB1, 40 μg/ml AlphaLISA Anti-6×His Acceptor beads in HBS buffer with 0.1% Tween-20 and 1 mM DTT.
The prepared solutions were incubated at room temperature for 30 min and then the solution containing the donor beads was mixed with the solution containing the acceptor beads.
The tested compounds were dispensed onto a white 384-well AlphaPlate 384 SW. DMSO was backfilled to all wells, resulting in a final DMSO content of 2%. Wells containing only DMSO served as background. Next, 10 μl of solution with donor and acceptor beads was added to the wells.
The plate was sealed with transparent film and shaken using a VibroTurbulator for 60 sec at room temperature, level 3. The plate was then spun down shortly (10 sec, 1000 rcf, room temperature) and incubated at 25° C. for 30 min.
The read-out was performed with PerkinElmer Enspire Multimode Plate Reader (method for AlphaLISA 384-well low volume, Filterset: λexc=680 nm, λem=615 nm).
The results were analyzed as follows: • 1) an average of luminescence for background signal was calculated and used as a negative control; • 2) average of the maximum measured luminescence for reference compound (structure shown in Table 3 below) was calculated and used as an internal positive control; • 3) raw luminescence values were normalized against positive and negative controls; • 4) Normalized responses to positive control were determined.

Assay [2] addresses CRBN/DDB1 protein complex (Homo sapiens, UniProt Q96SW2). The assay can be described thus: CRBN displacement TR-FRET assay. As to conditions: Thalidomide-Red tracer, 6×His-CRBN/DDB1; read-out: CRBN binding Ki. Here is the method: CRBN/DDB1 protein complex was mixed with Thalidomide-Red and a compound to be tested (the “test compound”). The test solution contained PPI Europium detection buffer, 1 mM DTT, 6.8 nM Thalidomide-Red (the tracer), 5 nM 6×His-CRBN/DDB1 protein, 0.5 nM Anti-6× His-Eu cryptate, 1% DMSO. The test solution was added to a 384-well assay plate.
The plate was spun-down (1 min, 1000 rpm, 22° C.) and then shaken using a VibroTurbulator for 30 sec at room temperature (20-25° C.), with the frequency set to level 10. The assay plate with protein and the tracer was incubated for 180 min at room temperature (20-25° C.) prior to read-out with a plate reader. The read-out was performed with plate reader (Pherastar, BMG Labtech) in time resolved fluorescence mode. Filter settings: TR 337 665 620.
The CRBN displacement TR-FRET experiment was carried out with various concentrations of the test compounds in order to measure Ki values.
The Ki values of competitive inhibitors were calculated using the equation based on the IC50 values of relationship between compound concentration and measured […], the Kd value of the Thalidomide-Red and CRBN/DDB1 complex, and the concentrations of the protein and the tracer in the displacement assay (as described by Cheng and Prusoff, Biochem Pharmacol 1973; 22:3099-3108).

Assay [3] addresses T1, GSPT1-HiBiT protein in GSPT1-HiBiT HEK293 cells (Homo sapiens, UniProt P15170+Q96SW2).
T1 construct: endogenous in cells; host or cells: HEK293 (CRISPR/Cas9 knock-in of HiBiT at the GSPT1 locus)
The assay can be described thus: GSPT1 degradation assay using HiBiT system (Nano-Glo HiBiT lytic assay). In kind it is cell-based. As to conditions: 6 hours treatment; for DC50: read-out: HiBiT lytic assay Geomean absolute DC50. An excerpt:
The effect of selected compounds of the invention on GSPT1 protein levels was investigated, using the GSPT1-HiBiT HEK293 cell line and the Nano-Glo HiBiT degradation assay protocol below.
GSPT1-HiBiT HEK293 cells were generated in-house using the HEK293 parental cells (ATCC, cat. no 70016364) and the CRISPR/Cas9 system. HEK293 cells were transformed with pSpCas9-BB-2A-Puro v2.0 plasmid carrying gRNA targeting the C-terminus of GSPT1 and ssODN template containing the HiBiT tag sequence with flanking homology sequences. Neon Transfection System (Thermo Fisher Scientific) was used for electroporation. HEK293 GSPT1-HiBiT cells were cultured with DMEM Glutamax (Gibco) supplemented with 10% heat inactivated FBS (Gibco). After transfection the culture medium was changed to DMEM Glutamax with 10% heat-inactivated FBS and 1% Penicillin-Streptomycin (Biowest) supplemented with Puromycin (2 μg/ml; Invivogen) for clonal selection. In order to isolate single cell clones for further validation and analysis, limiting dilution cloning in 96-well plates was performed. When the single clones reached confluency, HiBiT Lytic Assay (Promega) was performed in order to identify HiBiT positive clones. The clone selected for further studies was verified and validated using genotyping and HiBiT Blotting (Promega).
Cells were maintained in DMEM Glutamax medium, supplemented with 1% penicillin/streptomycin and 10% Fetal Bovine Serum (FBS) at 37° C., 5% CO2. Compounds were stored frozen as 20 mM DMSO stocks.
For the Nano-Glo HiBiT assay, cells were seeded onto 384-well white solid bottom plate at 2×10^3 cells/well in 40 μL using the Agilent BioTek MultiFlo FX Multimode Dispenser and incubated overnight. Following overnight incubation (37° C., 5% CO2) cells were treated with the test compounds and vehicle only (DMSO) control using the Echo 555 Liquid Handler. Twelve data-point compound titration curve with concentrations ranging from 10 μM to 0.03 nM was used. Final DMSO concentration was kept constant at 0.25% v/v across the assay plate. After 6 hours of incubation (37° C., 5% CO2), plates were removed from the incubator and let to equilibrate to RT. Luminescent signal detection was conducted using the Nano-Glo HiBiT Lytic Detection System (Promega, cat. nr N3050). Nano-Glo HiBiT Lytic Reagent was prepared freshly by diluting the LgBiT Protein (1:100 vol/vol) and the Nano-Glo HiBiT Lytic Substrate (1:50 vol/vol) in the relevant volume of the Nano-Glo HiBiT Lytic Buffer. 40 μL of the HiBiT Lytic Reagent was added per well, plates were shaken to facilitate lysis (350 rpm, 5 min, RT) and incubated in the dark for the following 10 min. Luminescence was read using the PHERAstar multimode plate reader (BMG LABTECH). The raw data (the relative luminescence unit values, RLU) were uploaded under the relevant protocol and analysed in CDDVault data management platform. Luminescence (RLU) values were normalized to the controls, and reported absolute DC50 values and Dmax values were calculated in CDDVault using non-linear regression and appropriate equations.

T1 sequence (P15170 whole entry): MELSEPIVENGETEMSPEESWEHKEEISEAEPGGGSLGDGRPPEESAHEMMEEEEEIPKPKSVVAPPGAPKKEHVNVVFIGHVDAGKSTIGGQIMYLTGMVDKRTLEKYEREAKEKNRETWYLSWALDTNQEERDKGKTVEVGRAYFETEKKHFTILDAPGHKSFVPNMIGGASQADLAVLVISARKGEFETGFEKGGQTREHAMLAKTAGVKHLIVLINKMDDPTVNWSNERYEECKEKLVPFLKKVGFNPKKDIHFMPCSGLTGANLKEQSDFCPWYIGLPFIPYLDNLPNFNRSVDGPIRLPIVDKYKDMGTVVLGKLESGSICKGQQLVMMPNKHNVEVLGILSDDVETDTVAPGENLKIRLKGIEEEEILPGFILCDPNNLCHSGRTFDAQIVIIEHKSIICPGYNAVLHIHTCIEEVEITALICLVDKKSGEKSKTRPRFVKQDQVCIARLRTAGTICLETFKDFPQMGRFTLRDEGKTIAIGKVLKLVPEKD
T1 sequence (Q96SW2 whole entry): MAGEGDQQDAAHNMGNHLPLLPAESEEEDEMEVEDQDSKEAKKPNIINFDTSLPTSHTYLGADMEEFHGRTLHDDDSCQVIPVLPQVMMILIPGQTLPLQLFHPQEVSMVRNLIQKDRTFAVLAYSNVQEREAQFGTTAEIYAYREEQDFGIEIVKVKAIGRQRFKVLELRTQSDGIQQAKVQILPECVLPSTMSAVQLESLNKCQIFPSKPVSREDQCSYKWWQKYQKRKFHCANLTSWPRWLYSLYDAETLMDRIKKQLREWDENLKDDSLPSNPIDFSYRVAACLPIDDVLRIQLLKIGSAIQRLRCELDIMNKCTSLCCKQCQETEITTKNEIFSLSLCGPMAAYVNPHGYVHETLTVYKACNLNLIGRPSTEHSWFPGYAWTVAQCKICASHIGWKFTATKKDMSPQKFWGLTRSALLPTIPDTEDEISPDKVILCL
T1 sequence (Q16531 whole entry partner): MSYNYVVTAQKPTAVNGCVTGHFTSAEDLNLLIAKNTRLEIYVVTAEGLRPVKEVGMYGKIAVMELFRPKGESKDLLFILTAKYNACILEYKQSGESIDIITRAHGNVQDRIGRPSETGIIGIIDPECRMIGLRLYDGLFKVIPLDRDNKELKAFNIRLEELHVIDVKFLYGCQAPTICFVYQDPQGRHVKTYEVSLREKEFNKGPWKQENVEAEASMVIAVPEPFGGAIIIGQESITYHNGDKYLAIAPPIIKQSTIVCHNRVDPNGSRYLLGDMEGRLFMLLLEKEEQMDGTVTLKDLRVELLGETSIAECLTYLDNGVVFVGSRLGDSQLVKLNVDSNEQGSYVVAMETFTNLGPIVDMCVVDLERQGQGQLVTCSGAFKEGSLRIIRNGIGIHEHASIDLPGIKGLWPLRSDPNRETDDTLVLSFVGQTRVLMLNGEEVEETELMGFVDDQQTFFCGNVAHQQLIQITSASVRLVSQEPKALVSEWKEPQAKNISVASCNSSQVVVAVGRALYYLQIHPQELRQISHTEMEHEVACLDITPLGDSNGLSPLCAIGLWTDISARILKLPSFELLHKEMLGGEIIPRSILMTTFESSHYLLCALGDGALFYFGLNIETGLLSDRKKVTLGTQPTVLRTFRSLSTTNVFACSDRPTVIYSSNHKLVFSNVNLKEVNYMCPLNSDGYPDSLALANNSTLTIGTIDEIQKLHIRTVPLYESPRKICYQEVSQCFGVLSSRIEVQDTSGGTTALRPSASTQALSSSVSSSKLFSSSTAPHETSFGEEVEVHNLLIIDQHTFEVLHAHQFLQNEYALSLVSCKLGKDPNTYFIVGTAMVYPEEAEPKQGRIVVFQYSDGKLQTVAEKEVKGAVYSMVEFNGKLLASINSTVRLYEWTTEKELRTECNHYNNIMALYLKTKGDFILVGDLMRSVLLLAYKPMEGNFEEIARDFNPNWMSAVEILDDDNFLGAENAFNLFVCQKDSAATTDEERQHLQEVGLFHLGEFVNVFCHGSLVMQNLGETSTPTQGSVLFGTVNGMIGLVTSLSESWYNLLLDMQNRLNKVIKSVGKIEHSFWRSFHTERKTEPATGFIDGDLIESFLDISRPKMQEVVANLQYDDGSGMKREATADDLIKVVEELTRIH
Sequence of [GSPT1]-[compound of formula (I)]-[CRBN/DDB1] complex (P15170 whole entry): as the sequence (P15170 whole entry) above
Sequence of [GSPT1]-[compound of formula (I)]-[CRBN/DDB1] complex (Q96SW2 whole entry): as the sequence (Q96SW2 whole entry) above
Sequence of [GSPT1]-[compound of formula (I)]-[CRBN/DDB1] complex (Q16531 whole entry partner): as the sequence (Q16531 whole entry partner) above
Sequence of CRBN/DDB1 protein complex (Q96SW2 whole entry, species assumed): as the sequence (Q96SW2 whole entry) above
Sequence of CRBN/DDB1 protein complex (Q16531 whole entry partner, species assumed): as the sequence (Q16531 whole entry partner) above

As for `COc1ccc(NC(=O)OCc2ccc3cc(C4CCC(=O)NC4=O)c(C)nc3c2)cc1Cl` (stereo not drawn) [Compound 11, (3-(2,6-dioxopiperidin-3-yl)-2-methylquinolin-7-yl)methyl (3-chloro-4-methoxyphenyl)carbamate], in assay [1], the activation at 1 µM is greater than 50%. Moreover, the Ki (in general, the equilibrium dissociation constant of an inhibitor or competing ligand from its target) in assay [2] is greater than 1 µM. For the same compound, in assay [3], the Dmax (in general, the greatest extent of degradation seen) is no less than 75% and the 50% degradation concentration (DC50) (in general, the midpoint of the concentration-degradation curve) was less than 0.01 µM.

With `Cc1nc2ccc(COC(=O)Nc3cc(C(C)(C)C)no3)cc2cc1N1CCC(=O)NC1=O` [Compound 66, (3-(2,4-dioxotetrahydropyrimidin-1(2H)-yl)-2-methylquinolin-6-yl)methyl (3-(tert-butyl)isoxazol-5-yl)carbamate], in assay [1], the activation at 1 µM is greater than 50%. For the same compound, in assay [2], the Ki was less than 0.5 µM. In assay [3], the maximal degradation (Dmax) is no less than 75% and the DC50 lay within 0.01 to 0.05 µM.

Take `Cc1ccc(NC(=O)CCc2ccc3cc(C4CCC(=O)NC4=O)c(C)nc3c2)cc1Cl` (stereo not drawn) [Compound 32, N-(3-chloro-4-methylphenyl)-3-(3-(2,6-dioxopiperidin-3-yl)-2-methylquinolin-7-yl)propanamide]: in assay [1], the activation at 1 µM is greater than 50%. In addition, the inhibition constant Ki in assay [2] was in the range of 0.5 to 1 µM. Besides, in assay [3], the Dmax was no less than 75% and the DC50 fell in the range of 0.01 to 0.05 µM.

Take `Cc1nc2cc(COC(=O)Nc3ccc(C(C)(C)C)cc3)ccc2cc1C1CCC(=O)NC1=O` (stereo not drawn) [Compound 8, (3-(2,6-dioxopiperidin-3-yl)-2-methylquinolin-7-yl)methyl (4-(tert-butyl)phenyl)carbamate]: in assay [1], the activation at 1 µM is greater than 50%. In addition, the inhibition constant (Ki) in assay [2] is less than 0.5 µM. Moreover, in assay [3], the maximal degradation (Dmax) is no less than 75% and the DC50 was less than 0.01 µM.

For the compound `Cc1nc2cc(COC(=O)Nc3ccc4c(c3)OCCO4)ccc2cc1C1CCC(=O)NC1=O` (stereo not drawn) [Compound 15, (3-(2,6-dioxopiperidin-3-yl)-2-methylquinolin-7-yl)methyl (2,3-dihydrobenzo[b][1,4]dioxin-6-yl)carbamate], in assay [1], the activation at 1 µM lay within 10 to 50%. Besides, the Ki in assay [2] is greater than 1 µM. In assay [3], the Dmax is no less than 75% and the DC50 is less than 0.01 µM.

With `Cc1nc2cc(COC(=O)Nc3ccc(C(F)(F)F)c(Cl)c3)ccc2cc1C1CCC(=O)NC1=O` (stereo not drawn) [Compound 18, (3-(2,6-dioxopiperidin-3-yl)-2-methylquinolin-7-yl)methyl (3-chloro-4-(trifluoromethyl)phenyl)carbamate], in assay [1], the activation at 1 µM lay within 10 to 50%. In assay [2], the inhibition constant (Ki) was in the range of 0.5 to 1 µM. In assay [3], the Dmax is no less than 75% and the DC50 was in the range of 0.01 to 0.05 µM.

With `Cc1nc2cc(CNC(=O)Nc3cc(C(C)(C)C)no3)ccc2cc1N1CCC(=O)NC1=O` [Compound 64, 1-(3-(tert-butyl)isoxazol-5-yl)-3-((3-(2,4-dioxotetrahydropyrimidin-1(2H)-yl)-2-methylquinolin-7-yl)methyl)urea], in assay [1], the activation at 1 µM lay in the range of 10 to 50%. Also, the Ki in assay [2] is less than 0.5 µM. In assay [3], the greatest degradation seen (Dmax) is no less than 75% and the DC50 was greater than 0.1 µM.

Regarding `Cc1nc2cc(COC(=O)Nc3ccc(C(C)(C)C)c(Cl)c3)ccc2cc1C1CCC(=O)NC1=O` (stereo not drawn) [Compound 10, (3-(2,6-dioxopiperidin-3-yl)-2-methylquinolin-7-yl)methyl (4-(tert-butyl)-3-chlorophenyl)carbamate], the activation at 1 µM in assay [1] is 10 to 50%. In addition, the inhibitory constant (Ki) in assay [2] is less than 0.5 µM. Besides, in assay [3], the maximal degradation (Dmax) is no less than 75% and the DC50 is less than 0.01 µM.

On to `Cc1ccc(NC(=O)OCc2ccc3cc([C@@H]4CCC(=O)NC4=O)c(C)nc3c2)cc1Cl` [Compound 38, (3-(2,6-dioxopiperidin-3-yl)-2-methylquinolin-7-yl)methyl (3-chloro-4-methylphenyl)carbamate], for which, in assay [1], the activation at 1 µM was less than 10%. In addition, in assay [2], the Ki was greater than 1 µM. For the same compound, in assay [3], the Dmax was no less than 75% and the 50% degradation concentration (DC50) lay within 0.05 to 0.1 µM.

Turning to `Cc1nc2cc(COC(=O)Nc3cccc(-c4ccccc4)c3)ccc2cc1C1CCC(=O)NC1=O` (stereo not drawn) [Compound 46, (3-(2,6-dioxopiperidin-3-yl)-2-methylquinolin-7-yl)methyl [1,1′-biphenyl]-3-ylcarbamate], the activation at 1 µM in assay [1] is 10 to 50%. In addition, the Ki in assay [2] lay within 0.5 to 1 µM. Besides, in assay [3], the maximal degradation (Dmax) is no less than 75% and the half-maximal degradation concentration (DC50) lay in the range of 0.01 to 0.05 µM.

On to `Cc1nc2cc(COC(=O)Nc3cc(OC(F)(F)F)ccc3F)ccc2cc1C1CCC(=O)NC1=O` (stereo not drawn) [Compound 6, (3-(2,6-dioxopiperidin-3-yl)-2-methylquinolin-7-yl)methyl (2-fluoro-5-(trifluoromethoxy)phenyl)carbamate], for which the activation at 1 µM in assay [1] lay within 10 to 50%. In addition, the Ki in assay [2] is greater than 1 µM. Further, in assay [3], the Dmax is no less than 75% and the DC50 was in the range of 0.01 to 0.05 µM.

Turning to `Cc1ccc(NC(=O)OCc2ccc3nc(C)c(C4CCC(=O)NC4=O)cc3c2)cc1Cl` (stereo not drawn) [Compound 5, (3-(2,6-dioxopiperidin-3-yl)-2-methylquinolin-6-yl)methyl (3-chloro-4-methylphenyl)carbamate], in assay [1], the activation at 1 µM was greater than 50%. In assay [2], the inhibition constant Ki is less than 0.5 µM.

For `Cc1ccc(NC(=S)NCc2ccc3cc(C4CCC(=O)NC4=O)c(C)nc3c2)cc1Cl` (stereo not drawn) [Compound 2, 1-(3-chloro-4-methylphenyl)-3-((3-(2,6-dioxopiperidin-3-yl)-2-methylquinolin-7-yl)methyl)thiourea], in assay [1], the activation at 1 µM is 10 to 50%. The inhibitory constant (Ki) in assay [2] fell in the range of 0.5 to 1 µM.
